From patent publication US8748601B2, “Selective serine/threonine kinase inhibitors” (The Regents of the University of California, priority 2003, dated 2014)

Experiments:
Erk = Erk phosphorylation in Swiss 3T3 cells (Western blot); assay type: cell-based; settings: 5 μM, 1 hour, growth factors 10 min
Procedure: (§1) Enoate 2 blocks Rsk autophosphorylation of Ser381, which is catalyzed by its cysteine-containing C-terminal kinase domain. […] Swiss 3T3 cells were serum starved for 24 hours and treated with 5 μM enoate or 0.1% DMSO (control) for 1 hour. The cells were then stimulated with growth factors for 10 min. and lysed with 1×SDS-PAGE sample buffer. Proteins were separated by SDS-PAGE and transferred to nitrocellulose membranes for Western blot analysis. Phosphorylation-specific antibodies against Rsk and Erk were purchased from Cell Signaling. Antibodies against nonphosphorylated Rsk and Erk were purchased from Santa Cruz Biotech and Cell Signaling, respectively. (FIG. 4.)

Rsk2 [1] = assay: Labeling by biotin-1 / bodipy-1 in Xenopus egg cytosol and competition by unlabeled compound; assay type: binding; settings: for Labeling of 90 kD protein by bodipy-1 after pretreatment: pretreatment with 1 μM
Procedure: To test whether compounds 1 and 2 (Formula IA, chloromethyl ketone and methyl enoate respectively) bind selectively and irreversibly to Rsk2, compound 1 was labeled with biotin. Xenopus egg cytosol was treated with 1 μM biotin-1. A major biotinylated 90 kD protein was detected by immunoblot analysis with streptavidin-HRP. Labeling of p90 with biotin-1 was abolished by pretreatment of the cytosol 1 μM of unlabeled 1. Thus, p90 is completely saturated by 1 at a concentration of 1 μM.
Labeling was abolished by pretreatment with 1 μM of 1 or 2.

Rsk = Rsk autophosphorylation of Ser381 in Swiss 3T3 cells (Western blot); assay type: cell-based; settings: 5 μM, 1 hour, growth factors 10 min
Procedure: as §1

animal carcinoma model = settings: compared with reversible quinazoline inhibitors; cited from earlier work
V281C v-Src (v-Src-es1) [2] = assay: Covalent labeling by biotin-cmk in NIH3T3 fibroblasts expressing v-Src-es1; assay type: cell-based; settings: biotin-cmk 2 μM, whole cell lysates
Description: (§2) To test whether cmk 4 could covalently label and inhibit Src kinases in vivo, we generated NIH3T3 fibroblast cell lines that stably overexpress either a wt v-Src allele or an electrophile-sensitive mutant, V281C v-Src (v-Src-es1). v-Src is constitutively active, and as a result of its expression in these cells, there is a substantial increase in phosphotyrosine levels. […] To test whether cmk 4 forms an irreversible, covalent bond with V281C v-Src, we conjugated biotin to the hydroxypropyl substituent. This point of attachment was chosen based on the model of cmk 4 bound to Hck in which the hydroxypropyl substituent is pointing out into solution.
(§3) NIH3T3 fibroblasts expressing either v-Src-es1 or v-Src were pretreated with increasing concentrations of cmk 4. Whole cells lysates were then prepared and treated with biotin-cmk (2 μM).

wt v-Src [3] = assay: Covalent labeling by biotin-cmk in NIH3T3 fibroblasts expressing wt v-Src; assay type: cell-based; settings: biotin-cmk 2 μM, whole cell lysates
Description: as §2, §3

[4] = tested on: NIH3T3 cells expressing wt v-Src; assay: Reversion of transformed morphology in cells expressing wt v-Src; assay type: cell-based; settings: 1 μM, 16 h
Description: (§4) Overexpression of v-Src in NIH3T3 fibroblasts causes morphological transformation. Nontransformed NIH3T3 cells have a flat morphology, characterized by long bundles of filamentous actin (“stress fibers”) that can be visualized by fluorescence microscopy. In contrast, NIH3T3 cells overexpressing wt v-Src or v-Src-es1 have a disorganized actin cytoskeleton that results in a round morphology. […] Under the same conditions, cells expressing wt v-Src are not affected by cmk 4 and maintain a round morphology (FIG. 8A). The effects of cmk 4 on cell morphology were quantified by counting 100-200 cells under each treatment condition for both wt v-Src and v-Src-es1. Approximately 80% of the cells expressing v-Src-es1 regain a flattened morphology upon treatment with 1 μM cmk 4, whereas less than 2% of cells expressing wt v-Src have actin stress fibers (FIG. 8B).

wt Fyn = wt Fyn (Homo sapiens, UniProt P06241); assay: wt Fyn kinase activity in vitro; settings: 30 nM
v-Src-es1 = assay: Global phosphotyrosine levels in NIH3T3 cells expressing v-Src-es1; assay type: cell-based
Description: (§5) We also investigated whether cmk 4 could block the function of v-Src-es1 in mammalian cells by monitoring global phosphotyrosine levels in cells expressing either wt v-Src or v-Src-es1.

[5] = tested on: NIH3T3 cells expressing v-Src-es1; assay: Reversion of transformed morphology in cells expressing v-Src-es1; assay type: cell-based; settings: 1 μM, 16 h
Description: as §4

Rsk2 CTD [6] = target: T1, Rsk2 CTD (Homo sapiens, UniProt P51812); assay: Rsk2 CTD in vitro kinase assay, wild type; assay type: biochemical
T1 construct: We tested the halomethylketones against the Rsk2 CTD by adapting an in vitro kinase assay; made in house
Description: (§6) We tested the halomethylketones against the Rsk2 CTD by adapting an in vitro kinase assay developed by Chrestensen and Sturgill, J, Biol. Chem. 277:27733 (2002).

wt v-Src [7] = assay: Global phosphotyrosine levels in NIH3T3 cells expressing wt v-Src; assay type: cell-based
Description: as §5

Val285Cys Fyn = Val285Cys Fyn (Homo sapiens, UniProt P06241, V285C); assay: Inactivation of engineered Val285Cys Fyn; assay type: biochemical
V281C v-Src (v-Src-es1) [8] = target: T2, V281C v-Src (v-Src-es1) (UniProt P00524, V281C, species not given); assay: Covalent labeling by biotin-cmk in NIH3T3 fibroblasts expressing v-Src-es1; assay type: cell-based
T2 construct: other: pretreatment of intact cells; lysates treated with biotin; Labeling of v-Src-es1 by biotin-cmk after pretreatment; other: pretreatment of intact cells with 1 μM
Description: as §2, §3

Rsk2 CTD Cys436Val = target: T3, Rsk2 CTD Cys436Val (Homo sapiens, UniProt P51812, C436V); assay: Rsk2 CTD in vitro kinase assay, Cys436Val mutant; assay type: biochemical
T3 construct: we expressed and purified two CTD mutants, Cys436Val and Thr493Met; made in house
Description: as §6

Rsk2 CTD Thr493Met = target: T4, Rsk2 CTD Thr493Met (Homo sapiens, UniProt P51812, T493M); assay: Rsk2 CTD in vitro kinase assay, Thr493Met mutant; assay type: biochemical
T4 construct: we expressed and purified two CTD mutants, Cys436Val and Thr493Met; made in house
Description: as §6

Rsk1 = target: T5, Rsk1 (Homo sapiens, UniProt Q15418); assay: Suppression of labeling by biotinylated fmk in human epithelial cell lysate, Rsk1; assay type: binding; settings: pretreatment with unlabeled compound
T5 construct: a crude lysate prepared from human epithelial cells; endogenous in cells
Description: A major concern with any pharmacological agent is its selectivity, not only among related family members, but among all other coexpressed proteins. To determine the global kinetic selectivity of fmk 5, we added a biotinylated derivative to a crude lysate prepared from human epithelial cells. Only two proteins in the lysate were labeled. […] Affinity purified antibodies raised against a Rsk1 peptide specifically immunoprecipitated the lower band, whereas a Rsk2 monoclonal antibody was specific for the upper band. Both proteins remained in the supernatant when a control rabbit IgG was used.

Erk1/2 = assay: EGF-stimulated Erk1/2 phosphorylation (Thr202, Tyr204) in COS-7 cells; assay type: cell-based; settings: 10 μM
Description: (§7) The only known Rsk2 CTD substrate is an autophosphorylation site, Ser386, in the linker region connecting the NTD and CTD. Phosphorylation of Ser386 creates a docking site for another kinase, phosphoinositide-dependent kinase 1 (PDK1), which phosphorylates and activates the NTD. […] The signaling pathway between EGF and Erk1/2 involves at least three protein kinases (EGFR, Raf, and MEK), two of which (EGFR and Raf) have threonine gatekeepers and cysteines in their ATP binding pockets (albeit at different locations relative to Rsk2 Cys436).

Rsk2 CTD [9] = target: Rsk2 CTD (Chlorocebus sabaeus, UniProt A0A0D9RPY4); assay: EGF-stimulated Ser386 phosphorylation in COS-7 cells; assay type: cell-based; settings: read-out: Reduction of Ser386 phosphorylation
Description: as §7

Chemical stability = assay type: physicochemical; settings: compared with cmk 4
Rsk2 [10] = target: Rsk2 (Homo sapiens, UniProt P51812); assay: Suppression of labeling by biotinylated fmk in human epithelial cell lysate, Rsk2; assay type: binding; settings: pretreatment with unlabeled compound
Description: A major concern with any pharmacological agent is its selectivity, not only among related family members, but among all other coexpressed proteins.

COC(=O)/C=C/c1c(-c2ccc(C)cc2)c2c(N)ncnc2n1CCCO [Compound 2]
Erk phosphorylation (Erk): does not block
Labeling of 90 kD protein by bodipy-1 after pretreatment (Rsk2 [1]): abolished
Rsk autophosphorylation of Ser381 (Rsk): blocks

C=CC(=O)Nc1ccc2ncnc(Nc3cccc(Br)c3)c2c1 [PD 168393]
Efficacy in an animal carcinoma model (animal carcinoma model): far superior to reversible quinazoline inhibitors

Cc1ccc(-c2c(C(=O)CCl)n(CCCOC(=O)NCCCCNC(=O)CCCCC3SCC4NC(=O)NC43)c3ncnc(N)c23)cc1 (stereo not drawn) [biotin-cmk]
Covalent labeling of v-Src-es1 (V281C v-Src (v-Src-es1) [2]): covalently targeted v-Src-es1
Covalent labeling of wt v-Src (wt v-Src [3]): absence of covalent labeling

Cc1ccc(-c2c(C(=O)CCl)n(CCCO)c3ncnc(N)c23)cc1 [cmk 4]
Cells expressing wt v-Src that have actin stress fibers [4]: less than 2%
Morphology of cells expressing wt v-Src [4]: not affected
Effect on wild-type (WT) Fyn (wt Fyn): no effect
Detectable phosphotyrosine in cells overexpressing v-Src-es1 (v-Src-es1; 1 μM): near-complete reduction
Tyrosine phosphorylation in cells overexpressing v-Src-es1 (v-Src-es1; increasing concentrations): dose-dependent decrease
Function of mutant v-Src in mammalian cells (v-Src-es1; summary statement): irreversibly blocked the function
Cells expressing v-Src-es1 that regain a flattened morphology [5]: Approximately 80%
Transformed morphology of cells expressing v-Src-es1 ([5]; FITC-phallodin staining): caused reversion of the transformed morphology
Inhibition of kinase activity of Rsk2 CTD (Rsk2 CTD [6]): potently inhibited
Concentration at which p90 is completely saturated (Rsk2 [1]; Xenopus egg cytosol): 1 µM
Labeling of p90 with biotin-1 after pretreatment with unlabeled compound (Rsk2 [1]; pretreatment of the cytosol 1 μM, streptavidin-HRP immunoblot): abolished
Labeling of 90 kD protein by bodipy-1 after pretreatment (Rsk2 [1]): abolished
Phosphotyrosine in cells overexpressing wt v-Src (wt v-Src [7]; 1 μM): no apparent effect
Effect on wt v-Src in mammalian cells (wt v-Src [7]; summary statement): no effect
Fold more potent than fmk 5 toward Val285Cys Fyn (Val285Cys Fyn): 100 fold
Inactivation of engineered Fyn with cysteine in place of Val285 (Val285Cys Fyn; 30 nM): rapidly inactivated
Time to inactivate Val285Cys Fyn (Val285Cys Fyn; 100 nM, 1 mM ATP): less than 5 min
Labeling of v-Src-es1 by biotin-cmk after pretreatment (V281C v-Src (v-Src-es1) [8]; pretreatment of intact cells with 1 μM): abolished
IC50 (V281C v-Src (v-Src-es1) [8]; read-out: IC50 for blocking labeling of v-Src-es1 by biotin-cmk, pretreatment of intact cells, lysates treated with biotin-cmk 2 μM): < 100 nM

Cc1ccc(-c2c(C(=O)CF)n(CCCO)c3ncnc(N)c23)cc1 [fmk 5]
Inhibition and covalent modification of Cys436Val mutant (Rsk2 CTD Cys436Val): resistant to inhibition and covalent modification
Inhibition and covalent modification of Thr493Met mutant (Rsk2 CTD Thr493Met): resistant to inhibition and covalent modification
Concentration for complete saturation of Rsk1 (Rsk1): 0.3 µM
EGF-stimulated phosphorylation of Erk1/2 Thr202 and Tyr204 (Erk1/2): no effect
Inhibition of kinase activity of Rsk2 CTD (Rsk2 CTD [6]): potently inhibited
Half-time of inactivation of Rsk2 CTD (Rsk2 CTD [6]; 1 μM, 1 mM ATP): less than 10 min
inhibition at 3 µM (Rsk2 CTD [9]): 95%
Chemical stability (Chemical stability): greater chemical stability
Concentration for complete saturation of Rsk2 (Rsk2 [10]): 1 µM

Cc1ccc(-c2cn(CCCO)c3ncnc(N)c23)cc1 [scaffold A]
Potency relative to fmk 5 against the Cys436Val mutant (Rsk2 CTD Cys436Val): much more potent than fmk 5
IC50 (Rsk2 CTD Cys436Val; Rsk2 CTD C436V): 430 ± 140 nM
IC50 (Rsk2 CTD Thr493Met; Rsk2 CTD mutant, read-out: IC50 values, T439M): > 30 µM
Fold weaker than fmk 5 toward WT Rsk2 (Rsk2 CTD [6]): 80 fold
IC50 (Rsk2 CTD [6]; Rsk2 CTD WT, read-out: IC50 values, WT): 1200 ± 80 nM
